# Legend:
# [1] = molecular target: T1, RUP3 (Mus musculus, UniProt Q7TQP3); assay: Oral glucose tolerance test (oGTT) in mice; type: in vivo; settings: for Mean % Inhibition of Glucose Excursion: male C57bl/6J mice, dextrose 3 g/Kg oral; for Blood glucose after glucose challenge: male C57bl/6J mice, 1, 3 or 10 mg/Kg p.o.
# T1 construct: randomly grouped (n=5) to receive a RUP3 agonist (either Compound B3 or B124); from tissue; host or cells: whole animal (male C57bl/6J mice), in vivo
# T1 sequence (Q7TQP3 1-335): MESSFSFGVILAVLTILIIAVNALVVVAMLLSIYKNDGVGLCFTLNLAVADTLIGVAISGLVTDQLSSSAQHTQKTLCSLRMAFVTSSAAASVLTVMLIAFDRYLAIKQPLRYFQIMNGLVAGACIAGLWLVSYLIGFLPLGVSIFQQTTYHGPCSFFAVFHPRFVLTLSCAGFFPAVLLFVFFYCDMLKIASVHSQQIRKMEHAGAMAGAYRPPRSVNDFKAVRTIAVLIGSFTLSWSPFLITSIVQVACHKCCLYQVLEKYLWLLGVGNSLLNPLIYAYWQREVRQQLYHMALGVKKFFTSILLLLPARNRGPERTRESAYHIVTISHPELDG
# Experimental: Male C57bl/6J mice at approximately 8 weeks of age were fasted for 18 hours and randomly grouped (n=5) to receive a RUP3 agonist (either Compound B3 or B124) at 1, 3 or 10 mg/Kg. Compounds were delivered orally via a gavage needle (p.o., volume 10 mL/Kg). At time 0, levels of blood glucose were assessed using a glucometer (Elite XL, Bayer), and mice were administered either vehicle (20% hydroxypropyl-beta-cyclodextrin) or test compound. Thirty minutes after administration of test compound, levels of blood glucose were again assessed, and mice were administered dextrose orally at a dose of 3 g/Kg. Blood glucose measurements were then taken 20 min, 40 min, 60 min and 120 min after this time.
# [2] = molecular target: T2, RUP3 (Homo sapiens, UniProt Q8TDV5); assay: Melanophore dispersion assay, RUP3 dose responses; type: cell-based; settings: melanophores transfected with RUP3 expression vector
# T2 construct: expressed in transfected cells; host or cells: melanophores (cultured per Potenza and Lerner 1992), electroporated with the RUP3 expression vector (pCMV)
# T2 sequence (Q8TDV5 1-335): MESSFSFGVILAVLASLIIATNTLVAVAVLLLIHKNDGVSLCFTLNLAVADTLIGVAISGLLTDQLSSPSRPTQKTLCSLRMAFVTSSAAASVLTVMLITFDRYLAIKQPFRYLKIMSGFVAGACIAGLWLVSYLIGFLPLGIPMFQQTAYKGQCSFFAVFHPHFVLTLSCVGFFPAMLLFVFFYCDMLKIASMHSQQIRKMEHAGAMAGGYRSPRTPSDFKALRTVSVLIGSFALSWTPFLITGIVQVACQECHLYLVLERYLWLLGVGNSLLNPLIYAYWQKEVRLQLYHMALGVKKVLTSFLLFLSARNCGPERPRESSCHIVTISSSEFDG
# Experimental: Melanophores are maintained in culture as reported by Potenza, M. N. and Lerner, M. R., in Pigment Cell Research, Vol. 5, 372-378, 1992 and transfected with the RUP3 expression vector (pCMV) using electroporation. Following electroporation, the transfected cells are plated into 96 well plates for the assay. The cells are then allowed to grow for 48 hours in order to both recover from the electroporation procedure and attain maximal receptor expression levels.
# On the assay day, the growth medium on the cells is replaced with serum-free buffer containing 10 nM melatonin. The melatonin acts via an endogenous Gi-coupled GPCR in the melanophores to lower intracellular cAMP levels. In response to lowered cAMP levels, the melanophores translocate their pigment to the center of the cell. The net effect of this is a significant decrease in the absorbance reading of the cell monolayer in the well, measured at […].
# After a 1-hour incubation in melatonin, the cells become completely pigment-aggregated. At this point a baseline absorbance reading is collected. Serial dilutions of test compounds are then added to the plate and compounds that stimulate RUP3 produce increases in intracellular cAMP levels. In response to these increased cAMP levels, the melanophores translocate their pigment back into the cell periphery. After one hour, stimulated cells are fully pigment-dispersed. The cell monolayer in the dispersed state absorbs much more light in the 600-650 nm range. The measured increase in absorbance compared to the baseline reading allows one to quantitate the degree of receptor stimulation and plot a dose-response curve.
# The compounds in the above examples were screened using the melanophore dispersion assay, as described above.
Structure (SMILES),Mean % Inhibition of Glucose Excursion ([1]; 1 mg/Kg p.o.) [%],Mean % Inhibition of Glucose Excursion ([1]; 3 mg/Kg p.o.) [%],Mean % Inhibition of Glucose Excursion ([1]; 10 mg/Kg p.o.) [%],Blood glucose after glucose challenge [1],EC50 [2] [nM]
"CC(C)OC(=O)N1CCC(Oc2cc(Nc3ccc(S(C)(=O)=O)cc3F)ncn2)CC1 [Compound B3, 4-[6-(2-Fluoro-4-methanesulfonyl-phenylamino)-pyrimidin-4-yloxy]-piperidine-1-carboxylic acid isopropyl ester]",14.83,22.03,39.31,lowered blood glucose in a dose-dependent manner,
"Cc1ccc(Nc2cc(OC3CCN(C(=O)OC(C)(C)C)CC3)ncn2)cc1F [Compound B16, 4-[6-(3-Fluoro-4-methyl-phenylamino)-pyrimidin-4-yloxy]-piperidine-1-carboxylic acid tert-butyl ester]",,,,,62
"COc1ccc(Nc2cc(OC3CCN(C(=O)OC(C)(C)C)CC3)ncn2)cc1F [Compound B21, 4-[6-(3-Fluoro-4-methoxy-phenylamino)-pyrimidin-4-yloxy]-piperidine-1-carboxylic acid tert-butyl ester]",,,,,128
"CCCNc1ccc(Nc2cc(OC3CCN(C(=O)OC(C)C)CC3)ncn2)c(C)c1 [Compound B124, 4-[6-(2-Methyl-4-propylamino-phenylamino)-pyrimidin-4-yloxy]-piperidine-1-carboxylic acid isopropyl ester]",0,5.49,21.94,lowered blood glucose in a dose-dependent manner,
"CC(C)OC(=O)N1CCC(Oc2cc(Oc3ccc(Br)cc3F)ncn2)CC1 [Compound B143, 4-[6-(4-Bromo-2-fluoro-phenoxy)-pyrimidin-4-yloxy]-piperidine-1-carboxylic acidisopropyl ester]",,,,,48

# From patent publication US20090036434A1, “Substituted aryl and heteroaryl derivatives as modulators of metabolism and the prophylaxis and treatment of disorders related thereto” (Arena Pharmaceuticals, Inc., priority 2004, published 2009)
